The values below come from patent publication US12564190B2, “Biobased herbicide enhancer agent and method for using the same” (priority 2021, dated 2026).

Common to all, as to assay type: in vivo
Experiment [1] deals with Lemna minor. Kind of experiment: Herbicide activity on Lemna minor in vitro, fresh weight reduction after one week. Conditions: fresh weight reduction compared to untreated plants, 7-day exposure, all chemicals 10 mg/L. As to the method:
The experiment was carried out in Lemna minor growing in vitro conditions. Lemna minor (duckweed) was bought in the local market. A stock culture was maintained on modified Hoagland medium in a controlled environment. The pH of the medium was adjusted to 6.0, and the plants were grown under static conditions in a plant growth chamber at 25±2° C., light/dark regime of 16 h/8 h.
For the experiments, fronds free from any visible chlorosis were taken from the stock cultures and exposed to the appropriate treatment. For each treatment, we used six repetitions with three fronds per repetition as the initial frond number. Individual fronds were transferred to a 12 well multiplate containing Hoagland medium (control), Hoagland medium containing polyferulates, herbicides or the combination as shown in Table 9. All chemicals were evaluated at the same concentration (10 mg/L). The multiplate was covered with a transparent cover to prevent evaporation. The herbicide activity was evaluated as fresh weight reduction compared to untreated plants after one week of incubation in the described conditions.

For experiment [2], the system named is potato plants. Kind of experiment: Desiccation of potato plants, field plots, visual evaluation 15 days after treatment. Conditions: three herbicides tested. The source says:
The desiccant was applied by spraying.

Experiment [3] relates to Echinochloa colona. The experiment can be described thus: Herbicide activity on Echinochloa colona plants, visual evaluation 20 days after treatment. To be noted: E. colona, 20 DAT, application rate 110 g a.i. ha^−1. An excerpt:
Echinochloa colona is a cosmopolitan weed common in crops (mainly rice, maize and vegetables), gardens, roadsides, disturbed sites, waste areas and pastures. It also grows along waterways, on the margins of lakes and ponds, in swamps and wetlands, and in other damp habitats. It has the potential to invade natural areas and completely outcompete native vegetation. This weed pose a significant threat to rice productivity globally and are usually reported as noxious weeds in several economically important crops around the world. E. colona has vigorous growth traits and high seed production since each E. colona plant can produce up to 42,000 seeds. The experiment in Echinochloa colona plants was carried out in independent pots and in four replications. […] The products were applied by spraying. The herbicide activity was visually evaluated 20 days after treatment.

Take `CCOC1Oc2ccc(OS(C)(=O)=O)cc2C1(C)C` (stereo not shown) [Ethofumesate]: in experiment [1], the Herbicide activity was 0%.

Consider `COc1cc(/C=C/C(=O)O)ccc1O` [Ferulic acid, (2E)-3-(4-hydroxy-3methoxyphenyl) prop-2-enoic acid], for which the “Effect in combination with the herbicides tested (synergism or antagonism according to Colby)” value in experiment [2] is “antagonist”.

In the case of `COC(=O)Nc1cccc(OC(=O)Nc2cccc(C)c2)c1` [Phenmedipham], the Herbicide activity in experiment [1] amounted to 3%.

Take `CCCC(=NOCC(C)Oc1ccc(Cl)cc1)C1=C(O)CC(C2CCCSC2)CC1=O` (stereo not shown) [Profoxydim]: the Herbicide activity in experiment [3] was found to be 34; in experiment [1] it was 45%.

On to `COC(=O)c1cccc(C)c1S(=O)(=O)NC(=O)Nc1nc(OCC(F)(F)F)nc(N(C)C)n1` [Triflusulfuron-methyl], for which the Herbicide activity in experiment [1] stood at 34%.

On to Diferulic acid, for which, in experiment [2], the “Effect in combination with the herbicides tested (synergism or antagonism according to Colby)” value is given as “antagonist”.
